The assay relates to primary cultured hippocampal neurons. The experiment in a line: LC3-eGFP puncta formation assay (autophagy promotion). Type of assay: cell-based, rat. The settings on record: rapamycin and HN-1703 at 0.1 μM and 0.5 μM respectively, 12 hours; FIG. 3A. The method, then: Primary neurons culture was performed from the hippocampus of rat (SD, Orient Bio) embryonic 16-day (E16) embryos. The left and right hemispheres of the extracted brain were separated using sterile tweezers under a dissecting microscope, the meninges were peeled off, the hippocampus was cut with No. 55 tweezers, and neural progenitor cells were mechanically dissolved in a Ca^2+/Mg^2+-free HBSS (Invitrogen) solution by pipetting with a pasteur pipette (Falcon, 354647). Undissolved tissues or vascular cells were settled, and then a supernatant was taken to measure the cell number and the isolated cells were seeded at 19,000 cells/cm^2 in a 35 mm culture dish coated with poly-L-ornithine (sigma, P3655) and fibronectin (sigma, F4759). The cells were cultured using a serum-free N2 medium (growth medium) added with 10 ng/mL bFGF (Invitrogen) in a 5% CO2 incubator, and the culture medium was replaced after 6 hours and after 24 hours. After 2 days, when the cells proliferated twice or more, subculture was performed.
After 3 days of the primary neural progenitor cell culture, a process of subculturing with 0.05% trypsin was repeated twice, and DNA electroporation or transfection was performed before seeding. […]
The number of cell nuclei labeled with DAPI and the number of cells expressing green fluorescence by overlapping LC3-eGFP expression and DAPI labeling were measured. The number of eGFP-LC3 puncta was measured per cell, and the signal intensity of puncta was measured using a confocal laser microscope program. […]
The autophagy promoting effect of HN-1703 in neurons differentiated by culturing hippocampal neural progenitor cells from rat embryos (E16) was evaluated by performing an LC3-eGFP puncta formation assay. The neural progenitor cells into which an LC3-eGFP recombinant gene was introduced by electroporation were differentiated into neurons, treated with rapamycin and HN-1703 at concentrations of 0.1 μM and 0.5 μM for 12 hours, respectively, and the puncta of LC3-GFP were scanned with a confocal laser microscope (Zeiss, LSM800) to measure the fluorescence intensity of LC3-eGFP and the number of puncta, and the results were illustrated in FIG. 3. Specifically, FIG. 3A illustrates confocal scanning micrographs of LC3-eGFP puncta formation after treated primary cultured hippocampal neurons overexpressing an LC3-eGFP fusion protein with HN-1703, and quantifying the number and fluorescence intensity of LC3-eGFP puncta per cell, and FIG. 3B illustrates a result of LC3-II turnover analysis.

One compound from patent US12605358B2, “Composition for preventing or treating nervous system diseases comprising compound that inhibits mTOR signaling pathway as active ingredient” (ALIAD BIOPHARMA, priority 2021, dated 2026) can be followed below.

Structures are written as SMILES.

In the case of `CO[C@H]1C[C@@H]2CC[C@@H](C)[C@@](O)(O2)C(=O)C(=O)N2CCCC[C@H]2C(=O)O[C@H]([C@H](C)C[C@@H]2CC[C@@H](O)[C@H](OC)C2)CC(=O)[C@H](C)/C=C(\C)[C@@H](O)[C@@H](OC)C(=O)[C@H](C)C[C@H](C)/C=C/C=C/C=C/1C` [rapamycin, reference compound], the “increase of the number of LC3-eGFP puncta compared to a control group” value turned out to be 49% and the “increase of the signal intensity of LC3-eGFP puncta compared to the control group” value is listed as 15%.
